Key:
dog [1] = conditions: Sub-acute repeat dose toxicity; beagle; Oral; Gavage/Intubation; dose end: 5 day; group: systemic; systemic / in life observation / clinical signs / abnormal feces + systemic / in life observation / clinical signs / emesis
dog [2] = conditions: Sub-acute repeat dose toxicity, beagle, Oral, Gavage/Intubation, dose end: 5 day, group: systemic
rabbit [3] = conditions: Sub-acute repeat dose toxicity; new zealand white; Oral; Gavage/Intubation; dose end: 5 day; group: systemic; systemic / in life observation / body weight / body weight + systemic / in life observation / clinical signs / altered breathing rate + …
dog [4] = conditions: Subchronic oral toxicity in nonrodent, beagle, Gavage/Intubation, dose end: 90 day, group: systemic
rat [5] = conditions: Sub-acute repeat dose toxicity; sprague dawley; Oral; Gavage/Intubation; dose end: 9 day; group: systemic; systemic / in life observation / body weight / body weight gain + systemic / in life observation / food consumption / food consumption
dog [6] = conditions: Sub-acute repeat dose toxicity; beagle; Oral; Gavage/Intubation; dose end: 29 day; group: systemic; systemic / clinical chemistry / hepatic mixed function oxidase (mfo) assay / hepatic mixed function oxidase (mfo) assay + systemic / in life…
rat [7] = conditions: Sub-acute repeat dose toxicity, sprague dawley, Oral, Gavage/Intubation, dose end: 29 day, group: systemic
rabbit [8] = conditions: Sub-acute repeat dose toxicity, Oral, Gavage/Intubation, dose end: 5 day, group: systemic
rat [9] = conditions: Fertility (Segment I), Oral, Gavage/Intubation, dose end: 1 generation, group: parental
rabbit [10] = conditions: Prenatal developmental toxicity study, new zealand white, Oral, Gavage/Intubation, dose end: 19 GD
primate [11] = conditions: Sub-acute repeat dose toxicity, Oral, Gavage/Intubation, dose end: 28 day, group: systemic
rat [12] = conditions: Sub-acute repeat dose toxicity; sprague dawley; Oral; Gavage/Intubation; dose end: 29 day; group: systemic; systemic / in life observation / clinical signs / salivation
rat [13] = conditions: Prenatal developmental toxicity study, sprague dawley, Oral, Gavage/Intubation, dose end: 18 GD
rat [14] = conditions: Sub-acute repeat dose toxicity, sprague dawley, Oral, Gavage/Intubation, dose end: 14 day, group: systemic
rat [15] = conditions: Fertility (Segment I), Oral, Gavage/Intubation, dose end: 1 generation, group: parental; remark: listed apart in the source
rat [16] = conditions: Chronic toxicity, sprague dawley, Oral, Gavage/Intubation, dose end: 180 day, group: systemic
primate [17] = conditions: Sub-acute repeat dose toxicity, Oral, Gavage/Intubation, dose end: 10 day, group: systemic
[18] = systemic / in life observation / clinical signs / abnormal feces
[19] = systemic / in life observation / clinical signs / abnormal feces + systemic / in life observation / clinical signs / emesis
[20] = systemic / clinical chemistry / cholesterol / cholesterol + systemic / organ weight / liver / absolute + systemic / pathology microscopic / …
[21] = systemic / in life observation / clinical signs / abnormal feces + systemic / organ weight / liver / absolute + systemic / pathology …
[22] = systemic / clinical chemistry / 5' nucleotidase / 5' nucleotidase + systemic / clinical chemistry / albumin / albumin + systemic / clinical …
[23] = systemic / in life observation / body weight / body weight + systemic / in life observation / clinical signs / abnormal feces + systemic / …
[24] = systemic / in life observation / clinical signs / abnormal respiratory sounds + systemic / in life observation / clinical signs / fur (…
[25] = systemic / in life observation / clinical signs / salivation
[26] = group: developmental, systemic / in life observation / body weight / fetal weight
[27] = group: maternal, systemic / in life observation / body weight / body weight + systemic / in life observation / body weight / body weight gain + systemic / in…
[28] = systemic / clinical chemistry / [other] / [other] + systemic / in life observation / clinical signs / abnormal feces + systemic / in life …
[29] = group: developmental, developmental / developmental malformation / bone / delayed ossification + systemic / in life observation / body weight / fetal weight
[30] = group: maternal, systemic / in life observation / clinical signs / salivation
[31] = group: maternal, systemic / in life observation / clinical signs / salivation + systemic / in life observation / body weight / body weight gain
[32] = systemic / in life observation / body weight / body weight gain + systemic / in life observation / clinical signs / dehydration + systemic…
[33] = systemic / in life observation / clinical signs / fur (altered appearance) + systemic / in life observation / clinical signs / salivation
[34] = systemic / clinical chemistry / 5' nucleotidase / 5' nucleotidase + systemic / clinical chemistry / alanine aminotransferase (alt/sgpt) / …
[35] = systemic / in life observation / body weight / body weight gain + systemic / in life observation / food consumption / food consumption
[36] = systemic / in life observation / clinical signs / abnormal feces + systemic / in life observation / clinical signs / salivation
[37] = systemic / in life observation / clinical signs / abnormal feces + systemic / in life observation / clinical signs / salivation + systemic…

In the case of `NC(=O)N(O)[C@@H]1C=C[C@H](Oc2cccc(Oc3ccc(F)cc3)c2)C1`, the LEL (dog [1]) is reported as 250 mg/kg/day, the LOAEL (dog [1]) is reported as over 500 mg/kg/day and the NEL (dog [1]) is reported as under 250 mg/kg/day. It also gave an NOAEL (dog [1]) of at least 500 mg/kg/day, an LEL (dog [2]; [18]) of 5 mg/kg/day and an NEL (dog [2]; [18]) of under 5 mg/kg/day. For the same compound, the LOAEL (dog [2]; [19]) was over 125 mg/kg/day, the NOAEL (dog [2]; [19]) was at least 125 mg/kg/day and the LEL (rabbit [3]) was 400 mg/kg/day. It also gave an LOAEL (rabbit [3]) of over 400 mg/kg/day, an NEL (rabbit [3]) of 40 mg/kg/day and an NOAEL (rabbit [3]) of at least 400 mg/kg/day. The NEL (dog [4]; [20]) was 5 mg/kg/day, the LOAEL (dog [4]; [21]) was over 125 mg/kg/day and the NOAEL (dog [4]; [21]) was at least 125 mg/kg/day. For the same compound, the LEL (dog [4]; systemic / organ weight / liver / absolute) was 25 mg/kg/day, the LEL (rat [5]) was 400 mg/kg/day and the LOAEL (rat [5]) was over 400 mg/kg/day. It also gave an NEL (rat [5]) of 200 mg/kg/day, an NOAEL (rat [5]) of at least 400 mg/kg/day and an LEL (dog [6]) of 125 mg/kg/day. For the same compound, the LOAEL (dog [6]) was over 125 mg/kg/day, the NEL (dog [6]) was 25 mg/kg/day and the NOAEL (dog [6]) was at least 125 mg/kg/day. It also gave an LOAEL (rat [7]; [22]) of over 400 mg/kg/day, an NEL (rat [7]; [22]) of 10 mg/kg/day and an NOAEL (rat [7]; [22]) of at least 400 mg/kg/day. The LEL (rat [7]; [20]) was 40 mg/kg/day.
Work on `CC(C)(O)c1coc(S(=O)(=O)NC(=O)Nc2c3c(cc4c2CCC4)CCC3)c1` yielded an LOAEL (rabbit [8]; [23]) of over 500 mg/kg/day, an NEL (rabbit [8]; [23]) of 50 mg/kg/day and an NOAEL (rabbit [8]; [23]) of at least 500 mg/kg/day. It also gave an LEL (rabbit [8]; systemic / in life observation / food consumption / food consumption) of 250 mg/kg/day, an LOAEL (rat [9]; [24]) of over 500 mg/kg/day and an NOAEL (rat [9]; [24]) of at least 500 mg/kg/day. The LEL (rat [9]; [25]) was 25 mg/kg/day, the NEL (rat [9]; [25]) was under 25 mg/kg/day and the LEL (rabbit [10]; [26]) was 250 mg/kg/day. For the same compound, the LOAEL (rabbit [10]; [26]) was over 250 mg/kg/day, the NOAEL (rabbit [10]; [26]) was at least 250 mg/kg/day and the LEL (rabbit [10]; [27]) was 250 mg/kg/day. It also gave an LOAEL (rabbit [10]; [27]) of over 250 mg/kg/day, an NEL (rabbit [10]; [27]) of 100 mg/kg/day and an NOAEL (rabbit [10]; [27]) of at least 250 mg/kg/day. It also gave an LOAEL (primate [11]; [28]) of over 200 mg/kg/day, an NEL (primate [11]; [28]) of 2 mg/kg/day and an NOAEL (primate [11]; [28]) of at least 200 mg/kg/day. For the same compound, the LEL (primate [11]; [18]) was 50 mg/kg/day, the LEL (rat [12]) was 100 mg/kg/day and the LOAEL (rat [12]) was over 500 mg/kg/day. It also gave an NEL (rat [12]) of 10 mg/kg/day, an NOAEL (rat [12]) of at least 500 mg/kg/day and an LEL (rat [13]; [29]) of 500 mg/kg/day. For the same compound, the LOAEL (rat [13]; [29]) was over 500 mg/kg/day, the NOAEL (rat [13]; [29]) was at least 500 mg/kg/day and the LEL (rat [13]; [30]) was 50 mg/kg/day. The NEL (rat [13]; [30]) was under 50 mg/kg/day, the LOAEL (rat [13]; [31]) was over 500 mg/kg/day and the NOAEL (rat [13]; [31]) was at least 500 mg/kg/day. For the same compound, the LOAEL (rat [14]; [32]) was over 1000 mg/kg/day, the NOAEL (rat [14]; [32]) was at least 1000 mg/kg/day and the LEL (rat [14]; [25]) was 100 mg/kg/day. The NEL (rat [14]; [25]) was under 100 mg/kg/day, the LOAEL (rat [15]; [33]) was over 500 mg/kg/day and the NOAEL (rat [15]; [33]) was at least 500 mg/kg/day. The LEL (rat [15]; [25]) was 25 mg/kg/day, the NEL (rat [15]; [25]) was under 25 mg/kg/day and the LOAEL (rat [16]; [34]) was over 500 mg/kg/day. It also gave an NOAEL (rat [16]; [34]) of at least 500 mg/kg/day, an LEL (rat [16]; [35]) of 25 mg/kg/day and an NEL (rat [16]; [35]) of under 25 mg/kg/day. The LEL (primate [17]; [36]) was 10 mg/kg/day, the NEL (primate [17]; [36]) was under 10 mg/kg/day and the LOAEL (primate [17]; [37]) was over 200 mg/kg/day. It also gave an NOAEL (primate [17]; [37]) of at least 200 mg/kg/day.

Source: EPA's ToxRefDB 2
